Experimental data: US20240083853A1, “HSD17B13 INHIBITORS AND USES THEREOF” (FL2022-001, Inc., priority 2020, published 2024)

Molecular target: T1, Recombinant human HSD17B13 enzyme (Homo sapiens, UniProt Q7Z5P4)
T1 sequence (Q7Z5P4 20-300): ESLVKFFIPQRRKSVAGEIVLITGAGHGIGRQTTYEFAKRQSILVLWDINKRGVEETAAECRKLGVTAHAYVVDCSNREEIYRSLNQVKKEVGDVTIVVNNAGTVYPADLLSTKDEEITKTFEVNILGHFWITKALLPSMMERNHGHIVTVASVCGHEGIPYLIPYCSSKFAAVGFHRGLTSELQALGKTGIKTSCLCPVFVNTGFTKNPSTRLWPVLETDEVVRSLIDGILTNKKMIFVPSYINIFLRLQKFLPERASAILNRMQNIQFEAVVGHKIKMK
Experiment: HSD17b13 NAD(P)H-Glo biochemical assay
Details: 50 uM estradiol, 1 mM NAD+, NAD(P)H-Glo luminescence; read-out: HSD17β13 IC50
Description: Example B-1: HSD17b13 NAD(P)H-Glo Biochemical Assay
Recombinant human HSD17B13 enzyme. Substrate: estradiol (Sigma β-Estradiol E8875), 100 mM in DMSO. Cofactor: NAD+ Grade I free acid (Sigma 10127965001), 20 mM in H2O. Assay buffer final concentration: 20 mM Tris pH7.4 with 0.002% Tween-20 and 0.02% BSA. Assay performed in 384 well solid bottom plate (Corning 3570). Enzymatic activity detected by NAD(P)H-Glo™ Detection System (Promega G9062).
Inhibitor compounds were serially diluted in DMSO and then further diluted in assay buffer to a 10× concentration consisting of 1% DMSO.
HSD17b13 enzyme was diluted in 1× assay buffer to the desired enzyme concentration based on the specific activity of the enzyme lot. 20 uL of diluted enzyme was added to each well along with 2.5 uL of 10× inhibitor solution. Assay plate was incubated at RT for 20 minutes, and then 2.5 uL of a 10× substrate/cofactor mix was added to each well for a final concentration of 50 uM estradiol and 1 mM NAD+. Assay plate was incubated at 37° C. for 3 hours. NAD(P)H-Glo™ Detection System reagents were prepared according to manufacturer's specifications, and 25 uL was added to each well. After incubating for 1 hour at RT, luminescence was measured.

Structure (SMILES) | IC50
Oc1ccc(-c2ccc(-n3nnc4cc(F)c(O)cc43)cc2)cc1 [Compound 10, 5-Fluoro-1-(4′-hydroxy-[1,1′-biphenyl]-4-yl)-1H-benzo[d][1,2,3]triazol-6-ol] | < 100 nM
N#Cc1ccc(-c2ccc(-n3ncc4cc(F)c(O)c(F)c43)cc2)cn1 [Compound 14, 5-(4-(5,7-Difluoro-6-hydroxy-1H-indazol-1-yl)phenyl)picolinonitrile] | < 100 nM
CCn1c(=O)n(-c2ccc(N3CCC(C)(C)CC3)cc2)c2c(F)c(O)c(F)cc21 [Compound 12, 3-(4-(4,4-Dimethylpiperidin-1-yl)phenyl)-1-ethyl-4,6-difluoro-5-hydroxy-1H-benzo[d]imidazol-2(3H)-one] | 100 to 1000 nM
CS(=O)(=O)N1CCN(c2ccc(-n3nc(F)c4cc(F)c(O)c(F)c43)cc2)CC1 [Compound 6, 3,5,7-Trifluoro-1-(4-(4-(methylsulfonyl)piperazin-1-yl)phenyl)-1H-indazol-6-ol] | 100 to 1000 nM
Oc1cccc(-c2ccc(-n3ncc4c(F)c(F)c(O)cc43)cc2)c1 [Compound 8, 4,5-Difluoro-1-(3′-hydroxy-[1,1′-biphenyl]-4-yl)-1H-indazol-6-ol] | 100 to 1000 nM
Cc1c(O)c(F)cc2cnn(-c3ccc(-c4cccc(O)c4)cc3)c12 [Compound 4.3, 5-Fluoro-1-(3′-hydroxy-[1,1′-biphenyl]-4-yl)-7-methyl-1H-indazol-6-ol] | 100 to 1000 nM
Oc1cccc(-c2ccc(-n3ncc4cc(Cl)c(O)cc43)cc2)c1 [Compound 2.6, 5-Chloro-1-(3′-hydroxy-[1,1′-biphenyl]-4-yl)-1H-indazol-6-ol] | 1000 to 30000 nM
CC1(C)CCN(c2ccc(-n3c(=O)oc4cc(F)c(O)c(F)c43)cc2)CC1 [Compound 39, 3-(4-(4,4-Dimethylpiperidin-1-yl)phenyl)-4,6-difluoro-5-hydroxybenzo[d]oxazol-2(3H)-one] | < 100 nM
CC1(C)CCN(c2ccc(N3C(=O)Cc4cc(F)c(O)c(F)c43)cc2)CC1 [Compound 33, 1-(4-(4,4-Dimethylpiperidin-1-yl)phenyl)-5,7-difluoro-6-hydroxyindolin-2-one] | 100 to 1000 nM
Oc1ccc(-c2ccc(-n3ncc4cc(Cl)c(O)cc43)cc2)cc1 [Compound 2.5, 5-Chloro-1-(4′-hydroxy-[1,1′-biphenyl]-4-yl)-1H-indazol-6-ol] | 100 to 1000 nM
Oc1cc2c(nnn2-c2ccc(N3CC4(CCOCC4)C3)cc2)c(C(F)(F)F)c1F [Compound 41, 1-(4-(7-Oxa-2-azaspiro[3.5]nonan-2-yl)phenyl)-5-fluoro-4-(trifluoromethyl)-1H-benzo[d][1,2,3]triazol-6-ol] | 100 to 1000 nM
CC1(C)CCN(c2ccc(-n3nnc4cc(F)c(O)c(F)c43)cc2)CC1 [Compound 21, 1-(4-(4,4-Dimethylpiperidin-1-yl)phenyl)-5,7-difluoro-1H-benzo[d][1,2,3]triazol-6-ol] | < 100 nM
Oc1cccc(-c2ccc(-n3ncc4c(Cl)c(F)c(O)cc43)cc2)c1 [Compound 5, 4-Chloro-5-fluoro-1-(3′-hydroxy-[1,1′-biphenyl]-4-yl)-1H-indazol-6-ol] | 100 to 1000 nM

Results, then the compound that gave them:

IC50 | Structure (SMILES)
< 100 nM | CC1(C)CN(c2ccc(-n3ncc4cc(F)c(O)c(F)c43)cc2)C1 [Compound 23.13, 1-(4-(3,3-Dimethylazetidin-1-yl)phenyl)-5,7-difluoro-1H-indazol-6-ol]
1000 to 30000 nM | CS(=O)(=O)Nc1cccc(-c2ccc(-n3ncc4cc(F)c(O)cc43)cc2)c1 [Compound 13.33, N-(4′-(5-Fluoro-6-hydroxy-1H-indazol-1-yl)-[1,1′-biphenyl]-3-yl)methanesulfonamide]
< 100 nM | CC1(C)CCN(c2ccc(-n3nnc4cc(F)c(O)cc43)cc2)CC1 [Compound 21.7, 1-(4-(4,4-Dimethylpiperidin-1-yl)phenyl)-5-fluoro-1H-benzo[d][1,2,3]triazol-6-ol]
100 to 1000 nM | CC1(C)CCN(c2ccc(-n3ncc4c(Cl)c(F)c(O)cc43)cc2)CC1 [Compound 5.2, 4-Chloro-1-(4-(4,4-dimethylpiperidin-1-yl)phenyl)-5-fluoro-1H-indazol-6-ol]
< 100 nM | CC1(C)CCN(c2ccc(-n3nnc4cc(F)c(O)c(F)c43)nc2)CC1 [Compound 26.14, 1-(5-(4,4-Dimethylpiperidin-1-yl)pyridin-2-yl)-5,7-difluoro-1H-benzo[d][1,2,3]triazol-6-ol]
< 100 nM | CC1(C)CCN(c2cnc(-n3nnc4cc(F)c(O)c(F)c43)cn2)CC1 [Compound 26.17, 1-(5-(4,4-Dimethylpiperidin-1-yl)pyrazin-2-yl)-5,7-difluoro-1H-benzo[d][1,2,3]triazol-6-ol]
< 100 nM | CC1(C)CC=C(c2ccc(-n3ncc4cc(F)c(O)c(F)c43)cc2)CC1 [Compound 27.2, 1-(4′,4′-Dimethyl-2′,3′,4′,5′-tetrahydro-[1,1′-biphenyl]-4-yl)-5,7-difluoro-1H-indazol-6-ol]
< 100 nM | CC1(C)CCN(c2ccc(-n3ncc4cc(F)c(O)c(F)c43)cc2)C1 [Compound 23.11, 1-(4-(3,3-Dimethylpyrrolidin-1-yl)phenyl)-5,7-difluoro-1H-indazol-6-ol]
100 to 1000 nM | CS(=O)(=O)C1CCN(c2ccc(-n3ncc4cc(F)c(O)c(F)c43)cc2)C1 (stereo not drawn) [Compound 22.2, 5,7-Difluoro-1-(4-(3-(methylsulfonyl)pyrrolidin-1-yl)phenyl)-1H-indazol-6-ol]
100 to 1000 nM | CC1(C)CCN(c2cnc(-n3ncc4cc(F)c(O)c(F)c43)nc2)CC1 [Compound 26.8, 1-(5-(4,4-Dimethylpiperidin-1-yl)pyrimidin-2-yl)-5,7-difluoro-1H-indazol-6-ol]
< 100 nM | CS(=O)(=O)N1CCN(c2ccc(-n3nnc4cc(F)c(O)c(F)c43)cc2)CC1 [Compound 21.3, 5,7-Difluoro-1-(4-(4-(methylsulfonyl)piperazin-1-yl)phenyl)-1H-benzo[d][1,2,3]triazol-6-ol]
< 100 nM | CC1(C#N)CCN(c2ccc(-n3ncc4cc(F)c(O)c(F)c43)cc2)CC1 [Compound 23.21, 1-(4-(5,7-Difluoro-6-hydroxy-1H-indazol-1-yl)phenyl)-4-methylpiperidine-4-carbonitrile]
100 to 1000 nM | CCS(=O)(=O)N1CCN(c2ccc(-n3ncc4cc(F)c(O)c(F)c43)cc2)CC1 [Compound 23.8, 1-(4-(4-(Ethylsulfonyl)piperazin-1-yl)phenyl)-5,7-difluoro-1H-indazol-6-ol]
100 to 1000 nM | CS(=O)(=O)c1ccc(-c2ccc(-n3ncc4cc(F)c(O)c(F)c43)cc2)cc1 [Compound 13.40, 5,7-Difluoro-1-(4′-(methylsulfonyl)-[1,1′-biphenyl]-4-yl)-1H-indazol-6-ol]
100 to 1000 nM | Oc1c(F)cc2nnn(-c3ccc(N4CCOC[C@@H]4c4ccccc4)cc3)c2c1F [Compound 26.29, (S)-5,7-Difluoro-1-(4-(3-phenylmorpholino)phenyl)-1H-benzo[d][1,2,3]triazol-6-ol]
< 100 nM | NS(=O)(=O)c1ccc(-c2ccc(-n3ncc4cc(F)c(O)cc43)cc2)cc1 [Compound 13.38, 4′-(5-Fluoro-6-hydroxy-1H-indazol-1-yl)-[1,1′-biphenyl]-4-sulfonamide]
100 to 1000 nM | NC(=O)c1ccc(-c2ccc(-n3ncc4cc(F)c(O)cc43)cc2)cc1 [Compound 13.36, 4′-(5-Fluoro-6-hydroxy-1H-indazol-1-yl)-[1,1′-biphenyl]-4-carboxamide]
1000 to 30000 nM | CS(=O)(=O)NC1CN(c2ccc(-n3ncc4cc(F)c(O)cc43)cc2)C1 [Compound 21.1, N-(1-(4-(5-Fluoro-6-hydroxy-1H-indazol-1-yl)phenyl)azetidin-3-yl)methanesulfonamide]
100 to 1000 nM | CS(=O)(=O)N1CCN(c2ccc(-n3ncc4cc(F)c(O)c(F)c43)cc2F)CC1 [Compound 23.7, 5,7-Difluoro-1-(3-fluoro-4-(4-(methylsulfonyl)piperazin-1-yl)phenyl)-1H-indazol-6-ol]
< 100 nM | CC1(C)CCN(c2ccc(-n3nnc4c(Cl)c(F)c(O)cc43)cc2)CC1 [Compound 40.1, 4-Chloro-1-(4-(4,4-dimethylpiperidin-1-yl)phenyl)-5-fluoro-1H-benzo[d][1,2,3]triazol-6-ol]
100 to 1000 nM | COc1ccc(-c2ccc(-n3ncc4cc(F)c(O)cc43)cc2)cc1 [Compound 13.21, 5-Fluoro-1-(4′-methoxy-[1,1′-biphenyl]-4-yl)-1H-indazol-6-ol]
100 to 1000 nM | CS(=O)(=O)N1CCCN(c2ccc(-n3ncc4cc(F)c(O)c(F)c43)cc2)CC1 [Compound 23.14, 5,7-Difluoro-1-(4-(4-(methylsulfonyl)-1,4-diazepan-1-yl)phenyl)-1H-indazol-6-ol]
< 100 nM | Oc1cc(-c2ccc(-n3ncc4cc(F)c(O)c(F)c43)cc2)ccc1Cl [Compound 13.19, 1-(4′-Chloro-3′-hydroxy-[1,1′-biphenyl]-4-yl)-5,7-difluoro-1H-indazol-6-ol]
